Measurements taken from ChEMBL document CHEMBL5465560, “Selectivity Literature for EUbOPEN Chemogenomic Library” (2024).

Tests used:
[1] = target: Aurora kinase B (Homo sapiens, UniProt Q96GD4); assay: Selectivity interaction (SelectScreen profiling (Invitrogen)) EUB0000607a AURKB; details: at 2 µM
[2] = target: Cyclin-dependent kinase 11B (Homo sapiens) (UniProt P21127); assay: Selectivity interaction (KinomeScan (DiscoverX)) EUB0000607a CDK11B; details: at 10 µM
[3] = target: T1, Tyrosine-protein kinase ITK/TSK (Homo sapiens) (UniProt Q08881); details: at 10 µM
T1 sequence (whole entry): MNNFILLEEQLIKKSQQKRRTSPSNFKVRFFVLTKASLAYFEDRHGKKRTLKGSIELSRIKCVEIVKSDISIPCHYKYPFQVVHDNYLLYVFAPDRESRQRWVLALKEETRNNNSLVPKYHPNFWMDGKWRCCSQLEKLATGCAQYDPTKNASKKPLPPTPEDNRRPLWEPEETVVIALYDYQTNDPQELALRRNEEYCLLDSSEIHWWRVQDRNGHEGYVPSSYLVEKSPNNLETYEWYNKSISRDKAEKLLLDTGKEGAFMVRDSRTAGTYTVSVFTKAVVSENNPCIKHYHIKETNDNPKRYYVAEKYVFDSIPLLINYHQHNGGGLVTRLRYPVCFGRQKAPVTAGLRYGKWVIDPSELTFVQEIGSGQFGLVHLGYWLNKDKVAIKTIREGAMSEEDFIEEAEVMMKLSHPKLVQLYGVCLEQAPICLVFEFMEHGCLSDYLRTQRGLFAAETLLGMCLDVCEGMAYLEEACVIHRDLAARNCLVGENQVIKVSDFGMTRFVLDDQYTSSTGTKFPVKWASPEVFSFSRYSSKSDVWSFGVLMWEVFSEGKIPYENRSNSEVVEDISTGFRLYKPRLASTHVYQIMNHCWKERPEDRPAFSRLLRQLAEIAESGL

[4] = target: Myosin light chain kinase 2, skeletal/cardiac muscle (Homo sapiens) (UniProt Q9H1R3); details: at 10 µM
[5] = target: Ephrin type-A receptor 2 (Homo sapiens) (UniProt P29317); assay: Selectivity interaction (ActivX KiNativ screen (kinase selectivity in THP-1 cell lysates)) EUB0000639a EPHA2; type: subcellular; details: lysate
[6] = target: Serine/threonine-protein kinase WNK2 (Homo sapiens) (UniProt Q9Y3S1); assay: Selectivity interaction (ActivX KiNativ screen (kinase selectivity in THP-1 cell lysates)) EUB0000639a WNK2; type: subcellular; details: lysate, at 0.04 µM
[7] = target: 5'-AMP-activated protein kinase catalytic subunit alpha-1 (Homo sapiens, UniProt Q13131); assay: Selectivity interaction (ActivX KiNativ screen (kinase selectivity in THP-1 cell lysates)) EUB0000639a PRKAA1; type: subcellular; details: lysate, at 5 µM
[8] = target: Mitogen-activated protein kinase kinase kinase 4 (Homo sapiens) (UniProt Q9Y6R4); assay: Selectivity interaction (KinomeScan (DiscoverX)) EUB0000695a MAP3K4; details: at 100 nM
[9] = target: RAC-beta serine/threonine-protein kinase (Homo sapiens) (UniProt P31751); assay: Selectivity interaction (KinomeScan (DiscoverX)) EUB0000595a AKT2; details: at 10 µM
[10] = target: Leukocyte tyrosine kinase receptor (Homo sapiens, UniProt P29376); assay: Selectivity interaction (KinomeScan (DiscoverX)) EUB0000595a LTK; details: at 10 µM
[11] = target: Serine/threonine-protein kinase 32C (Homo sapiens) (UniProt Q86UX6); assay: Selectivity interaction (KinomeScan (DiscoverX)) EUB0001049a STK32C; details: at 1 µM
[12] = target: Interferon-induced, double-stranded RNA-activated protein kinase (Homo sapiens) (UniProt P19525); assay: Selectivity interaction (Kinase panel (KiNativ target engagement assay in Jurkat cells)) EUB0001635a EIF2AK2; type: cell-based; details: Selectivity number of off-targets 0.0, Selectivity number of targets 233.0, Source Knowledge https://www.sciencedirect.com/science/article/pii/S2451945619300674?via%3Dihub, at 1 µM
[13] = target: T2, Homeodomain-interacting protein kinase 4 (Homo sapiens) (UniProt Q8NE63); assay: Selectivity interaction (KinomeScan (DiscoverX)) EUB0000229b HIPK4; details: at 10 µM
T2 sequence (whole entry): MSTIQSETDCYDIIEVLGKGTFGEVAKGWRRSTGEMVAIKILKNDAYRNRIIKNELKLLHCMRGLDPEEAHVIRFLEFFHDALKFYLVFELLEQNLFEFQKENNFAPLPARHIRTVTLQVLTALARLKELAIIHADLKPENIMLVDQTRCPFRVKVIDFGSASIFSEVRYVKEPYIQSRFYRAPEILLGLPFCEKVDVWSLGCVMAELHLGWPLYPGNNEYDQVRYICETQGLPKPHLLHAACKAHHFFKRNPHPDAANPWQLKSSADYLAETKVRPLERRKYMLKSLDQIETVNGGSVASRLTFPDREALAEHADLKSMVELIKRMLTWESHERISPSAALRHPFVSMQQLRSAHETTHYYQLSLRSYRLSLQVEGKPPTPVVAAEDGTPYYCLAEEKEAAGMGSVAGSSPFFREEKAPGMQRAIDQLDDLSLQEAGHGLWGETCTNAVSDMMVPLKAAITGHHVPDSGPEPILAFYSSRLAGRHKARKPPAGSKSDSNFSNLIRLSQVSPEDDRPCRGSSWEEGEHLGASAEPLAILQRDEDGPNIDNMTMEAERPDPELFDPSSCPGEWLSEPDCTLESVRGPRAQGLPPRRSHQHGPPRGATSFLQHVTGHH

[14] = target: Mitogen-activated protein kinase kinase kinase kinase 4 (Homo sapiens, UniProt O95819); assay: Selectivity interaction (KinomeScan (DiscoverX)) EUB0000092b MAP4K4; details: at 10 µM
[15] = target: Vascular endothelial growth factor receptor 2 (Homo sapiens, UniProt P35968); assay: Selectivity interaction (KinomeScan (DiscoverX)) EUB0000092b KDR; details: at 10 µM
[16] = target: T3, cAMP-dependent protein kinase catalytic subunit PRKX (Homo sapiens) (UniProt P51817); assay: Selectivity interaction (KinomeScan (DiscoverX)) EUB0000618a PRKX; details: at 10 µM
T3 sequence (whole entry): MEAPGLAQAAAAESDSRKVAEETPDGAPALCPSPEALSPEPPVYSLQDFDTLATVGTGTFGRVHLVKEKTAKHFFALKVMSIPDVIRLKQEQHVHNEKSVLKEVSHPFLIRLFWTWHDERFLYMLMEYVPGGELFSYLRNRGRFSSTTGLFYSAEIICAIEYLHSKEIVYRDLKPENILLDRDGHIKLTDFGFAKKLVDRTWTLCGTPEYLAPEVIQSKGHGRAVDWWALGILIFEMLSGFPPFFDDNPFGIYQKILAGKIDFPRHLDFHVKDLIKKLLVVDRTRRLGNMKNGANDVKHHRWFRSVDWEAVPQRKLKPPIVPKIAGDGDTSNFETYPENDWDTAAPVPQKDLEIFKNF

[17] = target: Death-associated protein kinase 1 (Homo sapiens, UniProt P53355); assay: Selectivity interaction (KinomeScan (DiscoverX)) EUB0001619a DAPK1; details: at 1 µM
Death-associated protein kinase 1, sequence (P53355 whole entry, looked up): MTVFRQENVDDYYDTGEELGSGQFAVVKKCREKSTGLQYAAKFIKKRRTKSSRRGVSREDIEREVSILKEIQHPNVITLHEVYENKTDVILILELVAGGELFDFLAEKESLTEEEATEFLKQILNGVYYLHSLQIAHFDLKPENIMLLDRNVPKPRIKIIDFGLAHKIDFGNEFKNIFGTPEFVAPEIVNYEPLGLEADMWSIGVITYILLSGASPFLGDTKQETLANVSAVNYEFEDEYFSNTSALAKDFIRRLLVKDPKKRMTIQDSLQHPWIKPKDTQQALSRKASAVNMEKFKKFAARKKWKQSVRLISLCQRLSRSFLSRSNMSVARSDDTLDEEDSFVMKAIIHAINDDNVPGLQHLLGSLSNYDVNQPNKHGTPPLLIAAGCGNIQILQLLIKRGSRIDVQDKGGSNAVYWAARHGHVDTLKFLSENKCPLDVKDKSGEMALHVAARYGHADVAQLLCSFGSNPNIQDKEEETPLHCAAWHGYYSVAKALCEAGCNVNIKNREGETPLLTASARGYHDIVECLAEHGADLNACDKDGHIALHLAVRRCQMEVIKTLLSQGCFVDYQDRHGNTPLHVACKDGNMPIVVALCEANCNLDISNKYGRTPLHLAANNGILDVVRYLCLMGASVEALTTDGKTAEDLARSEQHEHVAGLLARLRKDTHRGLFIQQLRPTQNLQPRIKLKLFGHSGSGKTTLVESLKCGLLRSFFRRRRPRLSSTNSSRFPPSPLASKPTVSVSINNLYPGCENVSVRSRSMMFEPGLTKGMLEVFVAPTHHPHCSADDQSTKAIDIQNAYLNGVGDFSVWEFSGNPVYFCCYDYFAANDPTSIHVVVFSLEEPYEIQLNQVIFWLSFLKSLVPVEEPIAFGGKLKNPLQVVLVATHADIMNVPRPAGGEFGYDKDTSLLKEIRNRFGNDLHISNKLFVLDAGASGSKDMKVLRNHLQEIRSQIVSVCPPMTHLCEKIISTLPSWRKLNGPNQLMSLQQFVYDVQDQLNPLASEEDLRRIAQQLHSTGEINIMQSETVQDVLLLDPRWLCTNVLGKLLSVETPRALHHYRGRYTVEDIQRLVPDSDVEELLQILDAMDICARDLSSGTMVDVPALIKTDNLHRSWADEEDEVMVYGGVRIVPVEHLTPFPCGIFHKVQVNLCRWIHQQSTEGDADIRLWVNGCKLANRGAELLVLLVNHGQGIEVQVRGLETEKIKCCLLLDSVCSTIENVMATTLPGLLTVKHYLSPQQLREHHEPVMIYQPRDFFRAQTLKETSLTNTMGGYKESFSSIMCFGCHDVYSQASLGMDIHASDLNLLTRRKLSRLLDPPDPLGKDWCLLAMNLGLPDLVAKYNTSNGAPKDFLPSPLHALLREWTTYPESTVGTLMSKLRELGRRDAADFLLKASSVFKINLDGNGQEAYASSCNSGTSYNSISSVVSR

Ephrin type-A receptor 2 (Homo sapiens), sequence (P29317 whole entry): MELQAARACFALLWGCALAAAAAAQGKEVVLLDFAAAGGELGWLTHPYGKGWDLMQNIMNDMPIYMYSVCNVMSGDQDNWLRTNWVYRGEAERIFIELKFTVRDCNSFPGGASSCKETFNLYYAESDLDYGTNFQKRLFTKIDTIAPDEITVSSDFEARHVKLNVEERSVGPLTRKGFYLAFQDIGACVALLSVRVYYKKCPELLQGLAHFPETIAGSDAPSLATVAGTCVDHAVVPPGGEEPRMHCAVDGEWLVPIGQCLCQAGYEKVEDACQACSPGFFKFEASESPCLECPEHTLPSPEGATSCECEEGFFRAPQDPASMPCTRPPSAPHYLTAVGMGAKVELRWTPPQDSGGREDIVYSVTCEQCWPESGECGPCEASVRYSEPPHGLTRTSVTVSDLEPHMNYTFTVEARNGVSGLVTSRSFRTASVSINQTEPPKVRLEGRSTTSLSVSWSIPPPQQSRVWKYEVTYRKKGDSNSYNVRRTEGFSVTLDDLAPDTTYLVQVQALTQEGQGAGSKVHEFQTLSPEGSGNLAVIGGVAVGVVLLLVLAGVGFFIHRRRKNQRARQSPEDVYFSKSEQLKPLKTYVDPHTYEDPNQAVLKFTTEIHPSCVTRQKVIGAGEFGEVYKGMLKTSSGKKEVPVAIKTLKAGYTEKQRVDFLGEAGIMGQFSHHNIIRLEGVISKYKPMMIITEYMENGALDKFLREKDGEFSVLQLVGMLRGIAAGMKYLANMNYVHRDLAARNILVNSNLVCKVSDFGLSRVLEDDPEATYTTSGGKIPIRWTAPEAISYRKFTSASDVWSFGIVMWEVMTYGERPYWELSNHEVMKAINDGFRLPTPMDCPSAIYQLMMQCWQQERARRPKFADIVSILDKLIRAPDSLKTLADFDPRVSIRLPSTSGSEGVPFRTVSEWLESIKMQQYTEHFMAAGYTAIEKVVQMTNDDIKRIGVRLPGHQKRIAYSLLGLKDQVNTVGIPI
Myosin light chain kinase 2, skeletal/cardiac muscle (Homo sapiens), sequence (Q9H1R3 whole entry): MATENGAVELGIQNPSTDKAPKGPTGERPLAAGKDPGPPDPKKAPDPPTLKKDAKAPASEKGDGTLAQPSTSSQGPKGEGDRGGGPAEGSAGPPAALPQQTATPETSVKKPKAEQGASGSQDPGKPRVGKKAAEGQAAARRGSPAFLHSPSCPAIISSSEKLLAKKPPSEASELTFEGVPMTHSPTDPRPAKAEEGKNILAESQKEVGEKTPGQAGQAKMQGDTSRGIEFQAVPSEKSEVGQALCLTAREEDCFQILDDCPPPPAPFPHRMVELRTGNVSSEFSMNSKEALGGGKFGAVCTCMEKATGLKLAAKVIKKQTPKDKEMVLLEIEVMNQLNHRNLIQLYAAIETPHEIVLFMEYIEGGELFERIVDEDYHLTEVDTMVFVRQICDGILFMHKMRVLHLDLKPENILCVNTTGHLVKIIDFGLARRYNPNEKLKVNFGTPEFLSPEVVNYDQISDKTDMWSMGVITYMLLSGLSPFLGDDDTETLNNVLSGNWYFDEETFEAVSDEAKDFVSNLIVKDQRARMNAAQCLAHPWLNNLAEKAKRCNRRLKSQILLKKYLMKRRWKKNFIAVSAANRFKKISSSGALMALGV
5'-AMP-activated protein kinase catalytic subunit alpha-1, sequence (Q13131 whole entry, looked up): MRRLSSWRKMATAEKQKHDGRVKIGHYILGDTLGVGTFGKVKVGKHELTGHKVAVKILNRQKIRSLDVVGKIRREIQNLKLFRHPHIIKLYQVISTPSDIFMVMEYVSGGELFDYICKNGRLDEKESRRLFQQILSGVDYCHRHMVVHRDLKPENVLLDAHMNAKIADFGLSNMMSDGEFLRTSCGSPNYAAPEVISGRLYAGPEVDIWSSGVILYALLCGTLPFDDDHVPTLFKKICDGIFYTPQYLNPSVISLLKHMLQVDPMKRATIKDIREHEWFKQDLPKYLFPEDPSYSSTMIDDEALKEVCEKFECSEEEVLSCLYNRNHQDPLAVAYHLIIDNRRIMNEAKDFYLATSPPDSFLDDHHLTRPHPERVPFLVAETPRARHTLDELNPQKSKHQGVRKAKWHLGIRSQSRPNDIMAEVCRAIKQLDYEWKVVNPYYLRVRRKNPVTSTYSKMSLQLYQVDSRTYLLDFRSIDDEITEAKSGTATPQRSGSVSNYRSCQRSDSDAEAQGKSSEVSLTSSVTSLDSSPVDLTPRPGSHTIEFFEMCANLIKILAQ
Interferon-induced, double-stranded RNA-activated protein kinase (Homo sapiens), sequence (P19525 whole entry): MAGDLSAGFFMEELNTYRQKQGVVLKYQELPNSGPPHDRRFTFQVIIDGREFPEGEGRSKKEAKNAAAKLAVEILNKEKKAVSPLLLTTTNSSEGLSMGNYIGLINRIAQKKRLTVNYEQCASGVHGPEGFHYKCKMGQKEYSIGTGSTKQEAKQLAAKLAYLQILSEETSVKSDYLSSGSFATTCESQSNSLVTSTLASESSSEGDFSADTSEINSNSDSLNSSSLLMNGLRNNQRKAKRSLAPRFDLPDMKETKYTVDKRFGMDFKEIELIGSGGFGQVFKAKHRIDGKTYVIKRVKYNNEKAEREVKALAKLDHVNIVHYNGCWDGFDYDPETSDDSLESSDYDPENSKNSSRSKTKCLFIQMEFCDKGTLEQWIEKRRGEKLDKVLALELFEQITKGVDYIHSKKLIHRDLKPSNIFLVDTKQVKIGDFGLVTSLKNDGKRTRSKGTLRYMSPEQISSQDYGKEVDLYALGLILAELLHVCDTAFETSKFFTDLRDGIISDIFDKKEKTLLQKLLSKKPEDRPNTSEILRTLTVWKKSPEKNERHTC
Leukocyte tyrosine kinase receptor, sequence (P29376 whole entry): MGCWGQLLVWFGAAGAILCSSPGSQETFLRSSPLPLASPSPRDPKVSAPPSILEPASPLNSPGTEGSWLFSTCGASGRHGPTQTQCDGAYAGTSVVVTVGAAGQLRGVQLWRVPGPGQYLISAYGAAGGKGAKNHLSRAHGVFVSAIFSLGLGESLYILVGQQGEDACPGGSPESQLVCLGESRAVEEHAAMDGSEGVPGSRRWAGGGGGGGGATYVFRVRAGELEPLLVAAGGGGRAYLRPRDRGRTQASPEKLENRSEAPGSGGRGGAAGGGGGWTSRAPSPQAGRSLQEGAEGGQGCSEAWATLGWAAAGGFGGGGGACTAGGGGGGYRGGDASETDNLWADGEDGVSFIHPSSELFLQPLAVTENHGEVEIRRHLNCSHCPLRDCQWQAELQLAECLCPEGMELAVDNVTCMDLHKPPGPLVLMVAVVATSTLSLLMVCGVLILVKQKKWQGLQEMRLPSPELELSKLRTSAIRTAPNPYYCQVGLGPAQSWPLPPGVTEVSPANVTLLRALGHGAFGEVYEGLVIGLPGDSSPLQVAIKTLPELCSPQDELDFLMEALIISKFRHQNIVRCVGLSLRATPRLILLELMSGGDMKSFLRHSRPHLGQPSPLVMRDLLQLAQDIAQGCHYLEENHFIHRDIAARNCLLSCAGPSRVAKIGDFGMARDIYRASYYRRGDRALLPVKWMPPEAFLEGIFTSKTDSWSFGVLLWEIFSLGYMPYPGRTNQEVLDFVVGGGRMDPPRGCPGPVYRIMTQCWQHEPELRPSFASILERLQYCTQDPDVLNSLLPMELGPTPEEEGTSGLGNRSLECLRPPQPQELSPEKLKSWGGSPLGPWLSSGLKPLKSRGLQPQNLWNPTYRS

## CNC(=O)Nc1ccc(-c2nc(N3CC4CCC(C3)O4)c3cnn(C4CCC5(CC4)OCCO5)c3n2)cc1
[1]
  % of inhibition: 3%
[2]
  % of control: 100%

## CCN(CC)CCCCNc1ncc2cc(-c3cc(OC)cc(OC)c3)c(NC(=O)NC(C)(C)C)nc2n1
[3]
  % of control: 100%
[4]
  % of control: 100%

## CC[C@@H]1[C@H](F)C(=O)N[C@@H]1COc1nccc2cc(C(N)=O)c(OC)cc12 [ZIMLOVISERTIB]
[5]; at 0.01 µM
  % of inhibition: -12.3%
[5]; at 0.04 µM
  % of inhibition: -11.2%
[5]; at 0.2 µM
  % of inhibition: 2.2%
[5]; at 1 µM
  % of inhibition: -12.7%
[5]; at 5 µM
  % of inhibition: 14.3%
[6]
  % of inhibition: -7.4%
[7]
  % of inhibition: 18.6%

## Cc1cc(F)c(C(=O)Nc2cccc(-c3nncn3C(C)C)n2)cc1-n1cnc(C2CC2)c1
[8]
  % of control: 92%

## COCC(=O)NC/C=C/c1ccc2ncnc(Nc3ccc(Oc4ccc(C)nc4)c(C)c3)c2c1 [CP-724714]
[9]
  % of control: 100%
[10]
  % of control: 88%

## COc1cc(Nc2nc(C)cc(-c3cnn4nc(OC)ccc34)n2)cc(C(F)(F)F)c1
[11]
  % of control: 87%

## C=CC(=O)Nc1ccc(C(=O)Nc2[nH]nc3c2CN(C(=O)N[C@H](CN(C)C)c2ccccc2)C3(C)C)cc1
[12]
  % of engagement: -0.6%

## COc1cc(N(C)c2ccnc3ccc(C(F)(F)F)cc23)cc(OC)c1OC
[13]
  % binding: 100%

## CCC(=O)N1CCN(c2ccc(-n3c(=O)ccc4cnc5ccc(-c6cnc7ccccc7c6)cc5c43)cc2C(F)(F)F)CC1
[14]
  % of control: 5.2%
[15]
  % of control: 65%

## O[C@H]1CC[C@H](Nc2ncc3nc(Nc4c(F)cc(F)cc4F)n([C@H]4CCOC4)c3n2)CC1
[16]
  % of control: 100%

## N#Cc1cccc(-c2c[nH]c3ncnc(N4CCOCC4)c23)c1
[17]
  % of control: 89%
